Results reported in US11607404B2, “Combinations of RAD51 and PARP inhibitors” (Cyteir Therapeutics, Inc., priority 2019, dated 2023).
Where two headings read alike, the source gives them in different places. Each block holds one molecule with its values, some of them ahead of it.

Columns and labels:
[1] = system: Daudi cell line (AID positive); assay: Primary screening cell killing assay (Cell-Titer Glo, Day 7); assay type: cell-based; conditions: Homo sapiens, 168 h; Daudi cells (AID positive), cell death on Day 7; read-out: AID+ EC50
Protocol: (§1) Primary screening was a phenotypic screen that utilized the synthetic lethal interaction between AID and RAD51 to identify compounds that were both potent and on target. AID expressing cells are dependent upon RAD51 for survival; inhibiting RAD51 in AID positive cells results in a cytotoxic effect.
The first step was to set up a cell killing assay in the Daudi cell line (AID positive). A 96 well u-bottom plate was prepared by writing the experiment number, plate number, date and initials in the top right corner of the plate lid. With a sterile 300 ml reservoir, and 25 ml serological pipette, evaporation buffer media was pipetted into reservoir in 25 ml increments. Using the liquid handler, 150 ul of evaporation buffer media was pipetted from reservoir into rows A and H, and Columns 1 and 12 of the 96 well u-bottom plate. Cell cultures were counted to obtain the density of cells per ml, and the culture viability. The cell density information was used to obtain 1,000,000 cells from culture using a 5 mL serological pipette into an epi tube. The cell density information from the culture was used to calculate the number of cells and volume of media needed for the assay to seed 1250 cells in 130 ul of media per available culture well in the 96 well u-bottom plate. Rows B through F were used for cells (50 wells in total), with row G left for an empty media control. The calculation was overestimated by 10 mL to account for the dead volume in the 300 ml reservoir. Once the media volume was calculated, the appropriate volume of media was pipetted in 25 mL increments into the 250 mL bottle using a 25 mL serological pipette. The 250 ml bottle was capped tightly, and placed into a 37° C. water bath for 2 minutes. While the culture media was warming, 10 mL of fresh media was pipetted from the 500 mL culture media bottle into a sterile 25 mL reservoir. Using the Eppendorf multichannel pipette, 130 ul of media was piptted from the 25 mL reservoir into row G of the 96 well u-bottom plate. Once the 250 mL bottle of media was warmed, the volume of culture needed was pipetted into the bottle, and mixed gently with a 25 mL serological pipette as to not create bubbles, and then the contents of the bottle were pipetted into a new 300 mL reservoir. Using the liquid handler, 130 ul of culture was pipetted from the 300 mL reservoir into rows B through F of the 96 well u-bottom plate. Once the culture was added, the plate was placed into a 37° C. incubator until the compound master plate was prepared for use.
Two 96 well u-bottom plates were prepared by writing the master plate name in the upper right corner of the plate lid. Labeling one DMSO master and the other Media Master. The compounds of interest were obtained from the laboratory freezer, and placed into a 25 well storage box with a lid, and set the box aside. The compounds were vortexed after thawing but before use. Using an automatic multichannel pipette, 20 ul of 100% DMSO was pipetted into wells B3-B11 through G3-G11 of the DMSO master plate. For each compound on the master plate, 50 ul of the compound were pipetted in the appropriate well of row 2 (reference plate map to determine appropriate well). A serial dilution was prepared beginning by aspirating 20 ul from row 2 and mixing with row 3, repeating until row 11 was reached. Using the liquid handler, 194 ul of Daudi media was dispensed into wells B2-B11 through G2-G11 of the Media master plate. Using the liquid handler, 6 ul from the DMSO master plate was aspirated and dispensed into the media master plate, mixing 100 ul twice.
Compounds from master plate were then added to the culture plate. The culture plates were removed from the incubator, and set inside the biosafety cabinet. Using a liquid handler, 20 ul from wells B2 to B11 through G2 to G11 of master plate were aspirated, and dispensed into wells B2 to B11 through G2 to G11 of culture plate. This set was continued with each culture plate. […]

[2] = system: WI-38 cells (AID negative); assay: Primary screening cell killing assay repeated in AID negative cells; assay type: cell-based, Human; conditions: WI-38 cells (AID negative), read-out: AID− EC50
Protocol: as §1
Percent cell death and EC50 values were calculated by comparing the cell viability of the compound treated wells to the non-treated wells. Normalized RLU values were obtained by subtracting the media well values from each of the wells in the same column, and then dividing that value by the DMSO treated cells values. The percent kill was then calculated by subtracting the normalized RLU value from 1 and multiplying by 100. The average normalized percent kill value and standard error of the mean was then calculated. The kill values were then inputted into Prism with the corresponding standard errors. In Prism a non-linear regression line was plotted with the data points using a semi-log scale, and the EC50 value was calculated.
The activity of the claimed compounds was measured in a variety of cell lines with different expression levels of activation induced cytidine deaminase (AICDA). The potency assay was repeated in all of the listed cell lines and the EC50 values recorded.

[3] = Bi-directional Caco-2 permeability; assay type: in vitro ADME; conditions: human; for Papp A→B / Papp B→A: Caco-2, 37 C, up to 90 minutes; for Papp A→B: apical to basolateral, read-out: AB Papp (cm/sec × 10^6); for Papp B→A: basolateral to apical, read-out: BA Papp (cm/sec × 10^6); for efflux ratio: Caco-2 efflux ratio, read-out: BA/AB Ratio
Protocol: Bi-directional Caco-2 permeability was assayed. Caco-2 cells were seeded onto permeable polycarbonate supports and allowed to differentiate for about 3 weeks prior to being used in the assays. The cells were then exposed to the compounds from either the apical or basolateral sides and incubated at 37 C for up to 90 minutes under light agitation. Compound transport was then measured using LC/MS/MS analysis at 30, 60, and 90 minutes.

[4] = Caco-2, apical to basolateral, read-out: AB Recovery %
[5] = Caco-2, basolateral to apical, read-out: BA Recovery %

SMILES: CC(C)OC(=O)N[C@@H]1CCC(c2ncc(-c3ccc(NC(=O)NCc4ccccc4)cc3S(=O)(=O)NC(C)(C)C)s2)OC1 (mixture of isomers) [Compound 59]
EC50 [1]: ≤ 100 nM | EC50 ([2]; Homo sapiens): > 1000 nM

SMILES: CC(C)OC(=O)Nc1ccc(-c2cnc(C3CC[C@@H](NC(=O)OC(C)C)CO3)s2)c(S(=O)(=O)NC(C)(C)C)c1 (mixture of isomers) [Compound 60]
EC50 [1]: ≤ 1000 nM

SMILES: CC(C)OC(=O)Nc1ccc(-c2cnc([C@@H]3CC[C@@H](NC(=O)OC(C)C)CN3)s2)c(S(=O)(=O)NC(C)(C)C)c1 (relative stereo) [Compound 63]
EC50 [1]: ≤ 1000 nM

recovery at 90 min [3, 4]: 55.9% | recovery at 90 min [3, 5]: 92% | Papp A→B [3]: 1.7 ×10⁻⁶ cm/s | Papp B→A [3]: 2.1 ×10⁻⁶ cm/s | efflux ratio [3]: 1.2
SMILES: CC(C)OC(=O)Nc1ccc(-c2cnc(C3CCC(NC(=O)OC4CCCC4)CC3)s2)c(S(=O)(=O)NC(C)(C)C)c1 (stereo not shown) [Compound 7]
EC50 [1]: ≤ 1000 nM

SMILES: CC(C)OC(=O)Nc1ccc(-c2cnc(C3CCC(NC(=O)OC[C@@H]4CCCN4C)CC3)s2)c(S(=O)(=O)NC(C)(C)C)c1 (stereo partly shown) [Compound 9]
EC50 [1]: ≤ 1000 nM

SMILES: CN1CCC[C@@H]1COC(=O)NC1CCC(c2ncc(-c3ccc(NC(=O)NCc4ccccc4)cc3S(=O)(=O)NC(C)(C)C)s2)CC1 (stereo partly shown) [Compound 11]
EC50 [1]: ≤ 1000 nM

SMILES: CN1CCC[C@H]1COC(=O)N[C@H]1CC[C@H](c2ncc(-c3ccc(NC(=O)NCc4ccccc4)cc3S(=O)(=O)NC(C)(C)C)s2)CC1 [Compound 12]
EC50 [1]: ≤ 1000 nM

SMILES: CC(C)OC(=O)Nc1ccc(-c2cnc(C34CCC(NC(=O)OC(C)C)(CC3)CC4)s2)c(S(=O)(=O)NC(C)(C)C)c1 [Compound 17]
EC50 [1]: ≤ 1000 nM

recovery at 90 min [3, 4]: 44.8% | recovery at 90 min [3, 5]: 96.6% | Papp A→B [3]: 9.4 ×10⁻⁶ cm/s | Papp B→A [3]: 10.4 ×10⁻⁶ cm/s | efflux ratio [3]: 1.1
SMILES: CC(C)NC(=O)OC1CCC(c2ncc(-c3ccc(NC(=O)OC(C)C)cc3S(=O)(=O)NC(C)(C)C)s2)CC1 (stereo not shown) [Compound 20]
EC50 [1]: > 1000 nM

recovery at 90 min [3, 4]: 58.6% | recovery at 90 min [3, 5]: 78.3%
SMILES: CC(C)NC(=O)OC1CCC(c2ncc(-c3ccc(NC(=O)NCc4ccccc4)cc3S(=O)(=O)NC(C)(C)C)s2)CC1 (stereo not shown) [Compound 21]
EC50 [1]: ≤ 100 nM

recovery at 90 min [3, 4]: 83.1% | recovery at 90 min [3, 5]: 89% | Papp A→B [3]: 1.1 ×10⁻⁶ cm/s | Papp B→A [3]: 21 ×10⁻⁶ cm/s | efflux ratio [3]: 18.7
SMILES: CC(C)OC(=O)NC1CCC(c2ncc(-c3ccc(NC(=O)NCc4ccncc4)cc3S(=O)(=O)NC(C)(C)C)s2)CC1 (stereo not shown) [Compound 22]
EC50 [1]: ≤ 1000 nM

SMILES: CC(C)OC(=O)NC1CCC(c2ncc(-c3ccc(NC(=O)NCc4ccc(F)cc4)cc3S(=O)(=O)NC(C)(C)C)s2)CC1 (stereo not shown) [Compound 23]
EC50 [1]: ≤ 100 nM

SMILES: CC(C)OC(=O)NC1CCC(c2ncc(-c3ccc(NC(=O)N[C@H](C)c4ccccc4)cc3S(=O)(=O)NC(C)(C)C)s2)CC1 (stereo partly shown) [Compound 24]
EC50 [1]: ≤ 100 nM | EC50 ([2]; Homo sapiens): > 1000 nM

SMILES: CC(C)OC(=O)NC1CCC(c2ncc(-c3ccc(NC(=O)NCc4cccnc4)cc3S(=O)(=O)NC(C)(C)C)s2)CC1 (stereo not shown) [Compound 25]
EC50 [1]: ≤ 100 nM

SMILES: CC(C)OC(=O)NC1CCC(c2ncc(-c3ccc(NC(=O)N[C@@H](C)c4ccccc4)cc3S(=O)(=O)NC(C)(C)C)s2)CC1 (stereo partly shown) [Compound 26]
EC50 [1]: ≤ 100 nM | EC50 ([2]; Homo sapiens): > 1000 nM

recovery at 90 min [3, 4]: 66.9% | recovery at 90 min [3, 5]: 81%
SMILES: CC(C)OC(=O)NC1CCC(c2ncc(-c3ccc(NC(=O)NCc4ccccc4F)cc3S(=O)(=O)NC(C)(C)C)s2)CC1 (stereo not shown) [Compound 28]
EC50 [1]: ≤ 100 nM

SMILES: CC(C)OC(=O)NC1CCC(c2ncc(-c3ccc(NC(=O)N[C@@H](C)c4ccccn4)cc3S(=O)(=O)NC(C)(C)C)s2)CC1 (stereo partly shown) [Compound 32]
EC50 [1]: ≤ 100 nM | EC50 ([2]; Homo sapiens): > 1000 nM

SMILES: CC(C)OC(=O)NC1CCC(c2ncc(-c3ccc(NC(=O)OCC4CCNCC4)cc3S(=O)(=O)NC(C)(C)C)s2)CC1 (stereo not shown) [Compound 33]
EC50 [1]: > 1000 nM

recovery at 90 min [3, 4]: 98.2% | recovery at 90 min [3, 5]: 96.8%
SMILES: CC(C)OC(=O)NC1CCC(c2ncc(-c3ccc(NC(=O)OC[C@H]4CCCN4C)cc3S(=O)(=O)NC(C)(C)C)s2)CC1 (stereo partly shown) [Compound 34]
EC50 [1]: ≤ 1000 nM

recovery at 90 min [3, 4]: 98.8% | recovery at 90 min [3, 5]: 108%
SMILES: CC(C)OC(=O)NC1CCC(c2ncc(-c3ccc(NC(=O)OC[C@@H]4CCCN4C)cc3S(=O)(=O)NC(C)(C)C)s2)CC1 (stereo partly shown) [Compound 35]
EC50 [1]: ≤ 1000 nM

SMILES: CC(C)OC(=O)NC1CCC(c2ncc(-c3ccc(NC(=O)OC[C@H]4CCCN4)cc3S(=O)(=O)NC(C)(C)C)s2)CC1 (stereo partly shown) [Compound 36]
EC50 [1]: ≤ 1000 nM

SMILES: CC(C)OC(=O)NC1CCC(c2ncc(-c3ccc(NC(=O)OC[C@@H]4CCCN4)cc3S(=O)(=O)NC(C)(C)C)s2)CC1 (stereo partly shown) [Compound 37]
EC50 [1]: ≤ 1000 nM

SMILES: CC(C)OC(=O)NC1CCC(c2ncc(-c3ccc(NC(=O)O[C@@H](C)c4ccccc4)cc3S(=O)(=O)NC(C)(C)C)s2)CC1 (stereo partly shown) [Compound 41]
EC50 [2]: > 1000 nM

recovery at 90 min [3, 4]: 36.2% | recovery at 90 min [3, 5]: 69.4% | Papp A→B [3]: 3.2 ×10⁻⁶ cm/s | Papp B→A [3]: 4.2 ×10⁻⁶ cm/s | efflux ratio [3]: 1.3
SMILES: CC(C)OC(=O)Nc1ccc(-c2cnc(C3CCC(NC(=O)OC(C)(C)C)CC3)s2)c(S(=O)(=O)NC(C)(C)C)c1 (stereo not shown) [Compound 44]
EC50 [1]: > 1000 nM

recovery at 90 min [3, 4]: 73.6% | recovery at 90 min [3, 5]: 84.4% | Papp A→B [3]: 7.6 ×10⁻⁶ cm/s | Papp B→A [3]: 10.8 ×10⁻⁶ cm/s | efflux ratio [3]: 1.4
SMILES: CC(C)(C)NS(=O)(=O)c1cc(NC(=O)NCc2ccccn2)ccc1-c1cnc(C2CCC(NC(=O)OC(C)(C)C)CC2)s1 (stereo not shown) [Compound 45]
EC50 [1]: ≤ 100 nM

SMILES: CC(C)OC(=O)Nc1ccc(-c2cnc(C3CCC(NC(=O)OC4COC4)CC3)s2)c(S(=O)(=O)NC(C)(C)C)c1 (stereo not shown) [Compound 48]
EC50 [1]: ≤ 1000 nM

SMILES: COc1cc(NC(=O)OC(C)C)cnc1-c1ncc(-c2ccc(NC(=O)OCC3CCNCC3)cc2S(=O)(=O)NC(C)(C)C)s1 [Compound 56]
EC50 [1]: ≤ 1000 nM

SMILES: CC(C)OC(=O)Nc1ccc(-c2sc(C3CCC(NC(=O)OC(C)C)CC3)nc2F)c(S(=O)(=O)NC(C)(C)C)c1 (stereo not shown) [Compound 58]
EC50 [1]: ≤ 1000 nM

SMILES: CC(C)OC(=O)N[C@@H]1CC[C@@H](c2ncc(-c3ccc(NC(=O)NCc4ccccc4)cc3S(=O)(=O)NC(C)(C)C)s2)OC1 [Compound 59A]
EC50 [1]: ≤ 1000 nM

SMILES: CC(C)OC(=O)Nc1ccc(-c2cnc([C@H]3CC[C@H](NC(=O)OC(C)C)CO3)s2)c(S(=O)(=O)NC(C)(C)C)c1 [Compound 60B]
EC50 [1]: ≤ 1000 nM

SMILES: CC(C)OC(=O)Nc1ccc(-c2cnc(C3CC(NC(=O)OC(C)C)C3)s2)c(S(=O)(=O)NC(C)(C)C)c1 (stereo not shown) [Compound 65]
EC50 [1]: ≤ 1000 nM

SMILES: CC(C)OC(=O)N[C@H]1CC[C@@H](c2ncc(-c3ccc(NC(=O)NCc4ccccc4)cc3S(=O)(=O)NC(C)(C)C)s2)CC1 [Compound 66B]
EC50 [1]: ≤ 1000 nM

SMILES: C=S(=O)(NC(C)(C)C)c1cc(NC(=O)NCc2ccccc2)ccc1-c1cnc(N2CCC(NC(=O)OC(C)C)CC2)s1 (stereo not shown) [Compound 68]
EC50 [1]: ≤ 1000 nM
